What was measured:
Format in all cases: binding
[1] = tested on: 53BP1 TTD; assay: Histone peptide microarray, 53BP1 TTD; details: 53BP1 TTD hits, average signal per peptide
Description: (§1) Peptide microarrays were fabricated using an Aushon 2470 microarrayer and used as described ([Cornett et al., 2017]) with the following modifications. Protein and antibody hybridization steps were performed in buffer containing 25 mM HEPES pH 7.5, 100 mM NaCl, 0.5% BSA (w/v), and 0.1% NP-40. Slides were washed 3 × 5 min in PBS supplemented with 0.1% Tween-20 between each hybridization step. Antibodies used were primary anti-GST (Sigma #7781, 1:2,000 dilution) and an AlexaFluor 647-labeled secondary antibody (Life Technologies A-21245, 1:5,000 dilution). […] Full lists of peptides queried by array analysis are in Supplementary Table S2.

[2] = tested on: Active Motif #39161, anti-H3K9me3; assay: Histone peptide microarray, Active Motif 39161; details: Active Motif 39161 (anti-H3K9me3) hits;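 also: normalized to the highest peptide average per subarray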
Description: as §1

[3] = tested on: Millipore #07-449, anti-H3K27me3; assay: Histone peptide microarray, Millipore 07-449; details: Millipore 07-449 (anti-H3K27me3) hits, average signal per peptide;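 also: normalized to the highest peptide average per subarray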
Description: as §1

[4] = tested on: Abcam #ab8895, anti-H3K4me1; assay: Histone peptide microarray, Abcam ab8895; details: Abcam ab8895 (anti-H3K4me1) hits, average signal per peptide;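 also: normalized to the highest peptide average per subarray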
Description: as §1

Substance | Avg Signal [1] | Avg Signal [2] | Avg Signal [3] | Avg Signal [4]
ARTKQpTARK(Ac)STGGK(Ac)APRK(Ac)QL-K(Biot)-NH2 [H3.1T6pK9acK14acK18ac] | 0.04664 | 0.002409 | 0.004763 | 
Ac-SGRGK(Ac)GGK(Ac)GLGK(Ac)GGAK(Ac)RHRKVLR-Peg-Biot [H4K5acK8acK12acK16ac] | 0.1158 |  |  | 0.005523
Ac-SGRGK(Ac)GGK(Ac)GLGK(Me)GGAK(Ac)RHRKVLR-Peg-Biot [H4K5acK8acK12me1K16ac] |  | 0.0008155 |  | 0.02773
IHQNLLPKKSAKATKASQ-Peg-Biot [yH2A(112-129)] |  | 0.005669 | 0.0006752 | 0.01029
PEPAKSAPAPKKGSKK(Ac)AVTKAQKK-Peg-Biot [Peptide H2BK16ac] |  | 0.01682 | 0.006632 | 0.001252
AGGKAGKDSGKAKTKAVSR-Peg-Biot [H2A.Z.1 unmod (1-19)] |  |  | 0.001328 | 
ARTKQTARKSpTGGKAPRKQL-Peg-Biot [Peptide H3.1T11p] |  | 0.0006879 | 0.0009523 | 0.1657
Ac-ARAKAKTRSSRAGLQF-Peg-Biotin [H2A(10-25)] |  |  | 0.005421 | 
Ac-APRKQLATKAARK(Ac)SAPATGG-Peg-Biot [Peptide H3.1K27ac] |  | 0.002581 | 0.003716 | 
Ac-SGRGKQGGKARAKAKTR-Peg-Biot [H2A(1-17)] | 0.1243 |  |  | 
Ac-SGRGK(Ac)GGK(Ac)GLGKGGAKRHRKVLR-Peg-Biot [Peptide H4K5acK8ac] |  |  | 0.02195 | 0.0004782
ARpTK(Me3)QTARKSTGGKAPRKQL-K(Biot)-NH2 [Peptide H3.1T3pK4me3] | 0.0446 | 0.008533 | 9.707e-5 | 
Ac-SGRGK(Pro)GGK(Pro)GLGK(Pro)GGAKRHRKVLR-Peg-Biot [H4K5proK8proK12pro] |  | 0.005323 | 0.02856 | 
ACitTK(Ac)QTARK(Ac)STGGK(Ac)APRK(Ac)QL-K(Biot)-NH2 [H3.1Cit2K4acK9acK14acK18ac] | 0.04568 | 0.003876 |  | 
Ac-AGGK(Ac)AGK(Ac)DSGK(Ac)AKTKAVSR-Peg-Biot [H2A.Z.1K4acK7acK11acN-ac] |  | 0.000221 | 0.0008552 | 4.222e-5
Ac-SGR(Me2a)GK(Ac)GGKGLGKGGAKRHRKVLR-K(Biot)-NH2 [Peptide H4R3me2aK5ac] |  | 0.0007875 |  | 0.006503
AGGRAGRDSGRAKTKAVSR-Peg-Biot [H2A.Z.1K4RK7RK11R] |  | 0.02573 | 0.008119 | 0.03173
ARTKQTARKSTGGK(Me3)APRKQL-Peg-Biot [Peptide H3.1K14me3] |  |  | 0.01888 | 0.148
Ac-TGGKAPR-NleQLATKAAR-Peg-Biot [Peptide H3.1K18-Nle] |  | 0.003627 | 0.005136 | 
Ac-RRYQK(Me3)STELL-Peg-Biot [Peptide H3.1K56me3] |  | 0.01852 | 0.0004417 | 

Substance | Avg Signal [1] | Avg Signal [2] | Avg Signal [3] | Avg Signal [4]
Ac-SGRGK(Ac)GGKGLGKGGAK(Ac)RHRKVLR-Peg-Biot [Peptide H4K5acK16ac] |  | 0.0002957 | 0.0005008 | 
Ac-IAQDFKTDLRF-Peg-K(Biot)-NH2 [H3.1.1(74-84)N-ac] | 0.06248 | 0.005943 |  | 
IAQDFKTDLRF-Peg-K(Biot)-NH2 [H3.1.1(74-84)] | 0.02 | 0.003353 |  | 
Ac-APRKQLATKAARK(Ac)SAPSTGG-Peg-Biot [Peptide H3.3K27ac] |  | 0.002855 |  | 0.011
Ac-SGRGK(Ac)GGKGLGK(Ac)GGAK(Ac)RHRKVLR-Peg-Biot [H4K5acK12acK16ac] |  |  | 0.0005303 | 
Ac-SGRGKGGK(Ac)GLGK(Ac)GGAK(Ac)RHRKVLR-Peg-Biot [H4K8acK12acK16ac] |  |  | 0.005254 | 0.004192
KSAPSTGGVK(Ac)KPHRYKPGT-GG-K(Biot)-NH2 [yH3K36ac] | 0.06747 |  |  | 
ARTK(Ac)QTARK(Ac)STGGKAPRKQL-K(Biot)-NH2 [Peptide H3.1K4acK9ac] | 0.05583 |  |  | 
ATKAARK(Ac)SAPATGGVK(Me2)KPHRYRPG-GK(Biotin)-OH [H3.1K27acK36me2] |  | 0.009849 | 0.003089 | 0.002974
Ac-RRYQK(Ac)STELL-Peg-Biot [Peptide H3.1K56ac] |  |  | 0.004595 | 
ARTK(Ac)QTARK(Ac)STGGK(Ac)APRKQL-K(Biot)-NH2 [H3.1K4acK9acK14ac] | 0.1165 |  |  | 
Ac-pSGRGK(Ac)QGGKARAKAKTR-Peg-Biot [Peptide H2AS1pK5ac] | 0.01536 | 0.009305 |  | 
ARTKQTARKSTGG-NleAPRKQL-Peg-Biot [Peptide H3.1K14-Nle] |  |  | 0.0002842 | 0.09623
ARTK(Ac)QTARK(Ac)pSTGGK(Ac)APRK(Ac)QL-K(Biot)-NH2 [H3.1K4acK9acS10pK14acK18ac] | 0.04385 |  |  | 
Ac-SGRGKGGK(Ac)GLGKGGAKRHRK(Ac)VLR-Peg-Biot [Peptide H4K8acK20ac] |  | 0.003203 | 0.001712 | 
Ac-pSGRGK(Ac)QGGK(Ac)ARAK(Ac)AK(Ac)TR-Peg-Biot [H2AS1pK5acK9acK13acK15ac] | 0.09024 |  |  | 
Ac-IAQDFK(Me)TDLRF-Peg-K(Biot)-NH2 [Peptide H3.1K79me1] | 0.009736 | 0.002481 |  | 
KSAPSTGGVKKPHRYKPGT-GG-K(Biot)-NH2 (C-terminal GG-K(biotin) amide) [yH3.1(27-45)] | 0.1127 |  |  | 
ARTKQTARKSTGGK(Me2)APRKQL-Peg-Biot [Peptide H3.1K14me2] |  | 0.004075 | 0.003481 | 0.15
ARTKQTAR(Me2s)KSTGGKAPRKQL-Peg-Biot [Peptide H3.1R8me2s] |  | 0.0002677 |  | 0.05819

Substance | Avg Signal [1] | Avg Signal [2] | Avg Signal [3] | Avg Signal [4]
H3.1.1(15-34) |  | 0.01508 |  | 
(Biot)Peg-MPKDIQLARRIRGERA-OH [H3.1.1(120-135)] | 0.05797 | 0.000221 | 0.0002349 | 
KSAPpSTGGVK(Me3)KPHRYRPGTV-K(biotin)-NH2 [H3.3S31pK36me3] |  | 0.01189 | 0.01017 | 
KSAPSpTGGVKKPHRYRPGT-G-K(Biot)-NH2 [Peptide H3.3T32p] |  | 0.001353 | 0.006003 | 0.0003862
ATKAACitKSAPATGGVKKPHRYRPGGG-K(Biotin)-OH [H3.1K27acK36me3] |  | 0.01207 | 0.01344 | 0.0002929
ARpTK(Me3)QTARK(Ac)STGGK(Ac)APRK(Ac)QL-K(Biot)-NH2 [H3.1T3pK4me3K9acK14acK18ac] | 0.05883 | 0.05484 | 0.007748 | 
PEPAKSAPAPKK(Ac)GSKKAVTKAQKK-Peg-Biot [Peptide H2BK12ac] |  | 0.0009681 | 0.004181 | 
AGGK(Ac)AGK(Ac)DSGK(Ac)AKTKAVSR-Peg-Biot [H2A.Z.1K4acK7acK11ac] |  | 0.0007875 | 0.00926 | 0.0004754
ARTK(Ac)QTARK(Ac)STGGKAPRK(Ac)QL-K(Biot)-NH2 [H3.1K4acK9acK18ac] | 0.1542 | 0.011 | 0.0004417 | 
IHQNLLPKK-pS-AKATKASQ-Peg-Biot [yH2AS121p] |  | 0.006042 | 0.007624 | 
Ac-AGGKAGKDSGKAKTKAVSR-Peg-Biot [H2A.Z.1(1-19)N-ac] |  |  | 0.007006 | 0.002647
Ac-APRKQLATKAARR(Me2a)K(Me)SAPSTGG-Peg-Biot [H3.3R26me2aK27me1] |  |  | 0.002329 | 0.000609
Ac-APRKQLATKAARKpSAPSTGG-Peg-K(Biot)-NH2 [Peptide H3.3S28p] |  | 0.006366 | 0.00807 | 0.002135
Biot-Peg-GKKATQASQEY-OH [H2A.X(132-142)] |  |  | 0.01738 | 0.00268
Ac-APRK(Ac)QLATK(Ac)AARK(Ac)SAPSTGG-Peg-Biot [H3.3K18acK23acK27ac] |  | 0.0217 | 0.005039 | 
ATKAARK(Ac)SAPATGGVK(Me)KPHRYRPG-GK(Biotin)-OH [H3.1K27acK36me1] |  | 0.01097 | 0.006337 | 0.01424
Ac-SGRGK(Ac)GGK(Ac)GLGK(Ac)GGAKRHRKVLR-Peg-Biot [H4K5acK8acK12ac] | 0.2078 |  | 0.002971 | 
ARTK(Ac)QTARKSTGGKAPRKQL-K(Biot)-NH2 [Peptide H3.1K4ac] | 0.1441 | 0.0285 |  | 
KSAPSTGGVK(Me2)KPHRYKPGT-GG-K(Biot)-NH2 [yH3K36me2] | 0.8217 |  |  | 
Ac-SGRGK(Ac)GGK(Ac)GLGKGGAK(Ac)RHRKVLR-Peg-Biot [H4K5acK8acK16ac] |  | 0.009927 |  | 

From paper PMC7160673, “A Degenerate Peptide Library Approach to Reveal Sequence Determinants of Methyllysine-Driven Protein Interactions” (Frontiers in Cell and Developmental Biology, 2020)
